Assay results reported in patent US5408036A, “Isolated metallopolypeptide: compositions and synthetic methods” (The Scripps Research Institute, priority 1993, dated 1995).
“And” between values parts separate entries of the source, which are not always exact repeats. Equal entries are not always repeated. Residues, ends and D or L forms follow the SMILES beside them. No end group written: not given here. *: point of attachment. 5‑carboxyl‑2,2'‑bipyridine = O=C(c1ccc(-c2ccccn2)nc1)*

Columns and labels:
[1] = CD titration: dependence of [θ]222 on free metal ion concentration, CdCl2; type: binding; settings: CdCl2, pH 8.0; peptide 5.9×10^-6M in 10 mM sodium borate, 0.5 mM mercaptoethanol, 21° C.
Excerpt: (§1) FIG. 4 illustrates the dependence of mean residue molar ellipticity at 222 nm ([.THETA.]222 ×10^-3) of peptides SEQ ID NO's:2 AND 3 on the concentration of free metal ions when measured as described in Example 3A(2).
(§2) The peptide metal salt solution admixtures prepared as in Example 2A were subjected to CD analyses according to published procedures to measure the degree of stability induced by metal ion complexation with peptides. Greenfield et al., Biochem, 8:4108 (1969) and Johnson, Ann. Rev. Biophvs. Chem., 17:145 (1988). All CD data reported herein have an uncertainty of ±2 to 5% for a 100% helix, [θ]222 =-35,000, and are based on several CD measurements of both peptides SEQ ID NO's:2 and 3 in the presence and absence of metal ions in various TFE/H20 mixtures at -10° to 20° C.
(§3) Both Cu(II) and Zn(II) bound peptide SEQ ID NO:3 with similar affinities and increased the helical content to the same extent.

[2] = CD titration: dependence of [θ]222 on free metal ion concentration, ZnCl2; type: binding; settings: CD analysis, ZnCl2
Excerpt: as §1, §2, §3

[3] = Circular dichroism (CD) to measure degree of secondary structure (alpha-helicity); type: physicochemical; settings: for helicity / θ: using Cu(II)
Procedure: ID No's. 3 and 4. The analysis was performed as described above.
Proton nuclear magnetic resonance spectra were recorded at 300MHz on Bruker AM300 spectrometer and are reported in parts per million (ppm) downfield from Me4 Si. Ultraviolet-visible spectra were recorded on Aviv Associates 14DS and Milton Roy Spectronic 3000 Array spectrometers. Circular dichroism measurements were made on Aviv Associates 62DS spectrometer equipped with a thermostable cell holder using 10, 1, and 0.1 mm Hellma quartz cells. All reported CD data have an uncertainty of ±2-5%. All ellipticity measurements are expressed as mean residue ellipticity, [θ], having the units deg·cm^2 ·dmol-^1.

[4] = Metal ion selectivity and relative affinities by CD analysis; type: binding; settings: for metal ion(s) that preferentially stabilize the peptide: summary of Example 3A(2), 3A(3); for metal ions bound, order of affinity: peptide SEQ ID NO:11 at pH 6.0
Excerpt: Metal ion selectivity is an expected consequence of site specific metal-ligand interaction. The extent of helical induction, to a first approximation, depends on the affinity of metal ion toward the ligands employed, and on the compatibility of metal ion geometry and coordination sphere with the alpha-helical conformation. Thus, although numerous metal ions can induce and stabilize alpha-helix formation, the metal ion having the greatest relative affinity for the ligands employed is preferred and can readily be determined. […]
Peptides, prepared as in Example 1, and admixed with various metal salt solutions as described in Example 2B, were subjected to CD analysis to characterize metal ion selectivity with respect to the position of the metal binding site in the alpha-helical sequence.

[5] = Heat denaturation assay to measure melting temperatures; type: physicochemical
Procedure: In order to assess differences in helix stability between the metal ion complexed and uncomplexed forms of peptides Seq. ID No's. 3 and 4, the conformational stability of each peptide in the presence and absence of transition metal ions was determined from heat denaturation studies according to published procedures. Pace et al., In Protein structure, p. 311., IRL Press, (1989). The analysis of the thermal denaturation curves afforded linear ΔG vs. T and van't Hoff plots. […] Complexed peptides Seq. ID No's.
Because tris-bipyridyl-metal ion coordination complexes are chiral and can form either a left-handed or a right-handed helix, two diastereomeric tri-helical structures can possibly be formed. The stereogenic environment of the ensuing parallel tri-helical topology as well as the geometrical constraints imposed by the overall C3 symmetry of the coordination complex was expected, however, to enforce a high degree of diastereoselectivity in the assembly process. The CD spectrum (in the region of 280 and 330 nm) of the peptide in the presence of Ni(II) indicated the formation of one diastereomer having a left-handed helical configuration. Such a behavior is also consistent with the expected left handed supercoil of the tri-helical metallopolypeptide. The analysis of the thermal denaturation curves for the metallopolypeptide in the presence of Ni(II) yielded linear ΔG vs T and van't Hoff plots.

[6] = Aqueous solubility of the peptide; type: physicochemical
Procedure: The peptide, in the absence of a metal ion, was readily soluble (up to about 2 mg/ml, 1.3 mM) in aqueous media at a pH value of from about 4 to about 9.

[7] = Concentration dependence of ellipticity at 222 nm, monomer-nmer equilibria; type: physicochemical; settings: absence of added metal ions; nonlinear regression MINSQ
Procedure: Data (Δ) were analyzed according to monomer-.eta.mer equilibria using the equation below, where Pn, Pmon, and PT are the self-associated, monomeric, and total concentrations of the peptides, respectively, n is the degree of association, θmon is the ellipticity of the monomer, and θn is the ellipticity of the self-associated form of the peptide. The values of n=1.95, θmon =-10,100, θn =-27,900, and Kdiss =6.4×10^-4 were determined by the nonlinear regression program MINSQ. [formula]

[8] = with CdCl2 (solution 8, 7.3×10^-4 M), water, 4° C.
[9] = Ni(II) or Co(II) ions plus 150 mM NaCl
[10] = absence of any polyvalent metal ion, 7.4 μM in 5 mM sodium borate, pH 6.4, 21° C.
[11] = presence of Ni(II) or Co(II) ions, similar conditions (5 mM sodium borate, pH 6.4, 21° C.)

With `CC(=O)N[C@@H](C)C(=O)N[C@@H](CCC(=O)O)C(=O)N[C@@H](C)C(=O)N[C@@H](C)C(=O)N[C@@H](C)C(=O)N[C@@H](CCCCN)C(=O)N[C@@H](CCC(=O)O)C(=O)N[C@@H](C)C(=O)N[C@@H](C)C(=O)N[C@@H](C)C(=O)N[C@@H](CCCCN)C(=O)N[C@@H](CS)C(=O)N[C@@H](C)C(=O)N[C@@H](C)C(=O)N[C@@H](C)C(=O)N[C@@H](Cc1c[nH]cn1)C(=O)N[C@@H](C)C(N)=O` [peptide SEQ ID NO:2, Ac--Ala--Glu--Ala--Ala--Ala--Lys--Glu--Ala--Ala--Ala--Lys--Cys--Ala--Ala--Ala--His--Ala--CONH2] (Ac-AEAAAKEAAAKCAAAHA-NH2) the Kd [1] was 56 µM, the “effect of Zn(II) on helical content” value [2] was “no effect” and the “dependence of helicity on added NaF” value ([3]; NaF up to 250 mM, 5 mM sodium borate) was “independent of concentration of added NaF up to 250 mM”. For the same molecule, the alpha-helicity ([3]; absence of metal ion (solution 7), water pH 6.65, 4° C.) was 54%, the “dependence of CD spectra on peptide concentration” value ([3]; presence and absence of metal ions, 0.5-70 μM) was “independent of the peptide concentration” and the alpha-helicity [3, 8] was “up to 90%”. For the same molecule, the “θ222” value [3, 8] was -31,500, the metal ion selectivity ([4]; CD analysis, CdCl2 vs ZnCl2) was “Cd(II) selective” and the “metal ion(s) that preferentially stabilize the peptide” value [4] was “Cu(II) and Zu(II)”.

For `CC(=O)N[C@@H](C)C(=O)N[C@@H](CCC(=O)O)C(=O)N[C@@H](C)C(=O)N[C@@H](C)C(=O)N[C@@H](C)C(=O)N[C@@H](CCCCN)C(=O)N[C@@H](Cc1c[nH]cn1)C(=O)N[C@@H](C)C(=O)N[C@@H](C)C(=O)N[C@@H](C)C(=O)N[C@@H](Cc1c[nH]cn1)C(=O)N[C@@H](CCC(=O)O)C(=O)N[C@@H](C)C(=O)N[C@@H](C)C(=O)N[C@@H](C)C(=O)N[C@@H](CCCCN)C(=O)N[C@@H](C)C(N)=O` [peptide SEQ ID NO:4, Ac--Ala--Glu--Ala--Ala--Ala--Lys--His--Ala--Ala--Ala--His--Glu--Ala--Ala--Ala--Lys--Ala--CONH2] (Ac-AEAAAKHAAAHEAAAKA-NH2), the “CD spectrum, structure indicated” value ([3]; room temperature in water) was “random coil structure”, the “metal ions bound, order of affinity” value ([4]; CD analysis) was “Ni(II) and Cu(II) predominantly followed by Cd(II) then Zn(II)” and the “metal ion(s) that preferentially stabilize the peptide” value [4] was “Ni(II)”. For the same molecule, the “melting temperature (Tm)” value [5] was -15.5 °C.

In the case of `CC(=O)N[C@@H](C)C(=O)N[C@@H](Cc1c[nH]cn1)C(=O)N[C@@H](C)C(=O)N[C@@H](C)C(=O)N[C@@H](C)C(=O)N[C@@H](Cc1c[nH]cn1)C(=O)N[C@@H](CCC(=O)O)C(=O)N[C@@H](C)C(=O)N[C@@H](C)C(=O)N[C@@H](C)C(=O)N[C@@H](CCCCN)C(=O)N[C@@H](CCC(=O)O)C(=O)N[C@@H](C)C(=O)N[C@@H](C)C(=O)N[C@@H](C)C(=O)N[C@@H](CCCCN)C(=O)N[C@@H](C)C(N)=O` [peptide SEQ ID NO:5, Ac--Ala--His--Ala--Ala--Ala--His--Glu--Ala--Ala--Ala--Lys--Glu--Ala--Ala--Ala--Lys--Ala--CONH2] (Ac-AHAAAHEAAAKEAAAKA-NH2), the “binding of Cd(II) or Zn(II)” value ([4]; CD analysis) is reported as “no significant binding”, the “metal ions bound, order of affinity” value ([4]; CD analysis) is reported as “Ni(II) and Cu(II) in descending order of affinity” and the “metal ion(s) that preferentially stabilize the peptide” value [4] is reported as “Ni(II)”.

For `CC[C@H](C)[C@H](NC(=O)[C@H](Cc1ccc(O)cc1)NC(=O)[C@@H](NC(=O)[C@H](Cc1c[nH]cn1)NC(=O)CNC(=O)[C@@H]1CCCN1C(=O)[C@H](Cc1c[nH]cn1)NC(=O)[C@@H](NC(=O)[C@H](CO)NC(=O)[C@H](CC(C)C)NC(=O)[C@H](CS)NC(C)=O)C(C)C)[C@@H](C)O)C(=O)N[C@@H](CCC(N)=O)C(=O)N[C@@H](CS)C(N)=O` [peptide SEQ ID NO:19] (Ac-CLSVHPGHTYIQC-NH2), the “CD spectrum, structure indicated” value ([3]; absence of added Zn, about 6.0×10^-6 M in Na borate, pH 7.5) was “random-coiled structure”, the “CD spectrum, structure indicated” value ([3]; one equivalent of Zn added) was “beta-turn structure” and the solubility ([6]; aqueous media, water, absence of a metal ion, pH about 4 to about 9) was ≥ 2000 µg/mL and ≥ 1300 µM. For the same molecule, the “decrease of aqueous solubility in the presence of Zn” value ([6]; pH values greater than about 5.0) was “about 100 fold”.

In the case of “-Gly-Glu-Leu-Ala-Glu-Gln-Lys-Leu-Glu-Gln-Ala-Leu-Gln-Lys-Leu-Ala ({5‑carboxyl‑2,2'‑bipyridine}-GELAEQKLEQALQKLA) [peptide of Example 4]”, the alpha-helicity [3, 9] is reported as 80%, the θ222 [3, 9] is reported as -25,800 deg·cm2·dmol^-1 and the alpha-helicity [3, 10] is reported as 30%. The θ222 [3, 10] was -10,000 deg·cm^2·dmol^-1, the alpha-helicity [3, 11] was “greater than 70%” and the θ222 [3, 11] was -23,400 degcm^2 dmol^-1. The “θmon, ellipticity of the monomer” value [7] was -10,100 and the “θn, ellipticity of the self-associated form” value [7] was -27,900.

With “Ac--Ala--Ala--Xaa2 --Ala--Leu--Glu--Xaa2 --Gln--Ala--Lys--Ala--Leu--Lys--Glu--Ala--Ala--Gln--Lys--Ala--CONH2 [peptide SEQ ID NO:11, Xaa2 = (NH2)(CO2 H)CH(CH2)3 N(CH2 CO2 H)2]” the helicity ([3]; 0° C.) was “about 100%”, the θ ([3]; 0° C.) was 35,600 and the helicity ([3]; 20° C.) was “about 80%”. For the same molecule, the θ ([3]; 20° C.) was 29,300, the “metal ions bound, order of affinity” value ([4]; CD analysis) was “Cu(II), Hg(II), Cd(II), Fe(II), Zn(II) and Pb(II) in descending order of affinity” and the “metal ion(s) that preferentially stabilize the peptide” value [4] was “Cu(II)”.

In the case of “Ru(III)-peptide SEQ ID NO:3 complex: exchange-inert macrocyclic cis-[Ru(NH3)4 (L)2 ]^3+ complex of peptide SEQ ID NO:3 through two His residues at i and i+4 (AEAAAKEAAAKHAAAHA; Ru(III) tetraammine macrocyclic complex via two His)”, the alpha-helicity ([3]; room temperature in water) is reported as greater than 80%, the θ222 ([3]; room temperature in water) is reported as -28,000 and the “melting temperature (Tm)” value [5] is reported as 35 °C.
